Where a SMILES comes first, the peptide text is derived from it.
What was measured:
[1] = system: human Kv1.3 channel (hKv1.3); format: cell-based; conditions: native peptides at 0.1 nM; human lymphocytes; Figs. 6A, S1
Protocol: (§1) Human Kv1.3 currents were recorded from activated peripheral blood mononuclear cells (see below) 3 to 4 days after activation. Heparinized human peripheral venous blood was obtained from healthy volunteers. Mononuclear cells were separated through Histopaque-1077 density gradient centrifugation. Collected cells were washed twice with Ca^2+- and Mg^2+-free Hanks’ solution containing 25 mM Hepes buffer, pH 7.4. Cells were cultured for 3 to 4 days in 24-well culture plates in a 5% CO2 incubator at 37 °C, in RPMI 1640 medium supplemented with 10% fetal calf serum (Sigma-Aldrich), 100 μg/ml penicillin, 100 μg/ml streptomycin, and 2 mM L-glutamine (density, 0.5 × 10^6 cells per ml). Phytohemagglutinin A (Sigma-Aldrich) was added to the medium at 10 μg/ml to amplify the Kv1.3 expression. Cells were washed gently twice with 2 ml of ECS for the patch-clamp experiments.
(§2) Conventional whole-cell patch-clamp electrophysiology was used to record ionic currents. Micropipettes were pulled from GC150F-7.5 borosilicate capillaries (Harvard Apparatus) with tip diameters between 0.5 and 1 μm resulting in a tip resistance of 2 to 8 MΩ in the extracellular (bath) solution. All measurements were carried out by using Axopatch 200B amplifier connected to a personal computer using Axon Digidata 1550A data acquisition hardware and Pclamp10.7 software (https://support.moleculardevices.com/s/article/Axon-pCLAMP-10-Electrophysiology-Data-Acquisition-Analysis-Software-Download-Page). The holding potential was −120 mV. Records were discarded when leak at the holding potential was >10% of peak current at the test potential. Experiments were performed at room temperature (20–24 °C). Before analysis, whole-cell current traces were corrected for ohmic leakage and digitally filtered with a three-point boxcar smoothing filter.
Solutions: all salts and components of the solutions were purchased from Sigma Aldrich. […]
Native peptides, phage-expressed peptides, and positive controls used for them were dissolved in ECS supplemented with 0.1 mg/ml bovine serum albumin (BSA; Sigma-Aldrich Hungary). Bath perfusion around the measured cell with different extracellular solutions was achieved using a gravity flow micro perfusion system using a rate of 0.5 ml/min. […]
(§3) Voltage protocols: For measurement of Kv1.1 to 1.3 currents, voltage steps to +50 mV were applied from a holding potential of −120 mV and the peak current was measured every 15 s. […] The remaining current fraction at a given molar concentration was calculated as I/I0, where I0 is the peak current in the absence and I is the peak current at equilibrium block or […] after ∼2 min perfusion by the investigated peptide/phage.

[2] = system: human Kv1.3 channel (hKv1.3); test: Whole-cell patch-clamp of phage-displayed toxins, hKv1.3 in human lymphocytes; format: cell-based; conditions: for estimated relative potency in phage-displayed form: from phage concentrations required to reach 50% block of hKv1.3 current, Vm24 = 1, Fig. 9B; for inhibition of Kv1.3 current in phage-displayed form, in words: phage-displayed peptide, DDDKTX1- and KTX1-phage at 3.6 × 10^13 particle/ml
Protocol: as §1, §2
Solutions: all salts and components of the solutions were purchased from Sigma Aldrich. The extracellular (bath) solution (ECS) contained 145 mM NaCl, 5 mM KCl, 2.5 mM CaCl2, 1 mM MgCl2, 10 mM Hepes, and 5.5 mM glucose (pH 7.35 with NaOH), while the intracellular (pipette) solution (ICS) contained 140 mM KF, 2 mM MgCl2, 1 mM CaCl2, 11 mM EGTA, and 10 mM Hepes (pH 7.22 with KOH). The osmolarity of the ECS and ICS were 302 mOsM.
Native peptides, phage-expressed peptides, and positive controls used for them were dissolved in ECS supplemented with 0.1 mg/ml bovine serum albumin (BSA; Sigma-Aldrich Hungary). Bath perfusion around the measured cell with different extracellular solutions was achieved using a gravity flow micro perfusion system using a rate of 0.5 ml/min. Excess fluid was removed continuously.
as §3, with “s. For Kv1.3 currents, 15-ms-long depolarizing pulses were applied. For Kv1.1, 50-ms-long–activating stimuli were used. Kv1.2 currents were evoked by 200-ms-long pulses.” for “s.”
Phage display test solutions were prepared according to routine phage display protocols ([62]). Phosphorylated and annealed oligonucleotides encoding the peptide construct were ligated into linearized pAS62 phagemid vector (https://patents.google.com/patent/WO2022144560A1/en) at a vector/insert ratio of 1:3. The final phagemid construct harbored a signal sequence followed by the peptide of interest, a linker sequence ([…]), and the C-terminal part of the P3 coat protein (amino acids: 216-424 of NP_510891.1). Chemically competent XL1-Blue E. coli cells (2022249, Agilent) were transformed with the ligation product and then streaked onto ampicillin (100 μg/ml) containing LB/Amp plates and incubated for 16 h at 37 °C.

human Kv1.3 = conditions: cited from earlier work; for IC50: human Kv1.3 channel blocking, patch-clamp, read-out: IC50, Kv1.x blocking (Kv1.3)
Text: Table 1 Summary of chimeric protein-binding prediction studies in the light of IC50 values | column: Kv1.x blocking / IC50 (nM) || Peptide toxins of venomous animal origin as lead molecules for optimization may offer an advantage over small molecules in terms of potentially greater affinity and specificity. These miniproteins are usually up to 50 amino acids in length and can adopt distinct conformation with secondary structural elements stabilized by several disulfide bonds ([9], [10], [11]). Due to their considerable surface area, miniproteins can form stable complexes with target proteins through extensive interaction surfaces ([12], [13]). The miniprotein Kv1.3 blocker drug candidate, Dalazatide—a synthetic derivative ... || Our initial investigation focused on assessing the relative binding affinities of various channel-blocking toxins to the T-only version of the KcsA-Kv1.3 chimera. Subsequently, we evaluated whether these affinities aligned with the toxins' blocking efficacy on native human Kv1.3 channels, as determined by patch-clamp assay.

human Kv1.1 = conditions: cited from earlier work; for IC50: human Kv1.1 channel blocking, patch-clamp, read-out: IC50, Kv1.x blocking (Kv1.1)

Structure (SMILES)	rank order of blocking of native Kv1.3 [1]	estimated relative potency in phage-displayed form [2]	inhibition of Kv1.3 current in phage-displayed form, in words [2]	IC50 (human Kv1.3) [pM]	IC50 (human Kv1.1) [pM]	inhibition of Kv1.3, in words (human Kv1.3)	inhibition of Kv1.1, in words (human Kv1.1)
CC[C@H](C)[C@H](NC(=O)[C@H](C)NC(=O)[C@H](C)NC(=O)[C@H](C)N)C(=O)N[C@@H](CO)C(=O)N[C@H]1CSSC[C@@H]2NC(=O)[C@H](CCCCN)NC(=O)CNC(=O)[C@H](CC(N)=O)NC(=O)[C@H](CCCCN)NC(=O)[C@@H]3CSSC[C@@H](C(N)=O)NC(=O)[C@H](Cc4ccc(O)cc4)NC(=O)[C@H](Cc4ccc(O)cc4)NC(=O)[C@@H]4CSSC[C@H](NC(=O)[C@H](CCCCN)NC(=O)[C@@H]5CCCN5C(=O)[C@@H]5CCCN5C(=O)[C@H](CSSC[C@H](NC(=O)[C@H](CCCCN)NC(=O)[C@H](CCCNC(=N)N)NC(=O)[C@H](CC(N)=O)NC(=O)[C@H](CCSC)NC2=O)C(=O)N[C@@H](CCCCN)C(=O)N4)NC(=O)[C@H](CCC(=O)O)NC(=O)[C@@H]2CCCN2C(=O)[C@H](CO)NC(=O)CNC(=O)[C@H](C(C)C)NC1=O)C(=O)N[C@@H](CCCNC(=N)N)C(=O)N[C@@H](C)C(=O)N[C@@H](CCC(N)=O)C(=O)NCC(=O)N3 [Vm24, Vm24 toxin]	Vm24 > HgTX1 > KTX1	approximately 1	significant inhibition	3			
CC[C@H](C)[C@@H]1NC(=O)[C@@H]2CSSC[C@H](NC(=O)[C@H](CO)NC(=O)[C@@H](N)C(C)C)C(=O)N[C@@H]([C@@H](C)O)C(=O)NCC(=O)N[C@@H](CO)C(=O)N[C@@H](CCCCN)C(=O)N[C@@H](CC(=O)O)C(=O)N[C@@H](CSSC[C@@H](C(=O)N[C@@H](CCCCN)C(=O)N[C@H]3CSSC[C@@H](C(N)=O)NC(=O)CNC(=O)[C@H](Cc4ccc(O)cc4)NC3=O)NC(=O)[C@H](CO)NC(=O)[C@H](CCCCN)NC(=O)[C@H](CC(N)=O)NC1=O)C(=O)N[C@@H](Cc1ccc(O)cc1)C(=O)N[C@@H](C)C(=O)N1CCC[C@H]1C(=O)N[C@H]1CSSC[C@H](NC(=O)CNC(=O)[C@H]([C@@H](C)O)NC(=O)[C@H](CCC(N)=O)NC(=O)[C@H](CCCCN)NC(=O)[C@H](CCCNC(=N)N)NC1=O)C(=O)N1CCC[C@H]1C(=O)N[C@@H](CC(N)=O)C(=O)N[C@@H](C)C(=O)N[C@@H](CCCCN)C(=O)N2 [MTX, Maurotoxin] (HELM PEPTIDE1{V.S.C.T.G.S.K.D.C.Y.A.P.C.R.K.Q.T.G.C.P.N.A.K.C.I.N.K.S.C.K.C.Y.G.C.[am]}$PEPTIDE1,PEPTIDE1,3:R3-24:R3|PEPTIDE1,PEPTIDE1,9:R3-29:R3|PEPTIDE1,PEPTIDE1,13:R3-19:R3|PEPTIDE1,PEPTIDE1,31:R3-34:R3$$$V2.0; N-terminus and C-terminus assumed)					> 100000		
CC[C@H](C)[C@@H]1NC(=O)CNC(=O)[C@H](Cc2ccccc2)NC(=O)[C@H](CCC(N)=O)NC(=O)[C@H](C)NC(=O)[C@H](CCCCN)NC(=O)[C@@H]2CSSC[C@@H](C(=O)N[C@@H](Cc3ccc(O)cc3)C(=O)N3CCC[C@H]3C(=O)N[C@@H](Cc3c[nH]cn3)C(=O)O)NC(=O)[C@H](CCCCN)NC(=O)[C@@H]3CSSC[C@H](NC(=O)[C@H](CCC(N)=O)NC(=O)[C@H](CCCCN)NC(=O)[C@@H]4CCCN4C(=O)[C@H](CO)NC(=O)[C@H]([C@@H](C)O)NC(=O)[C@@H](NC(=O)[C@H](CCCCN)NC(=O)[C@@H](NC(=O)[C@H](CC(=O)O)NC(=O)[C@@H](NC(=O)[C@@H](NC(=O)[C@@H](N)[C@@H](C)O)C(C)C)[C@@H](C)CC)C(C)C)CSSC[C@H](NC(=O)[C@H](CCCCN)NC(=O)[C@H](C)NC(=O)CNC(=O)[C@H](C)NC(=O)[C@H](CCCNC(=N)N)NC1=O)C(=O)N[C@@H](CCSC)C(=O)N[C@@H](CC(N)=O)C(=O)NCC(=O)N[C@@H](CCCCN)C(=O)N3)C(=O)N[C@@H](CC(C)C)C(=O)N1CCC[C@H]1C(=O)N1CCC[C@H]1C(=O)N2 [HgTx1, Hongotoxin-1] (HELM PEPTIDE1{T.V.I.D.V.K.C.T.S.P.K.Q.C.L.P.P.C.K.A.Q.F.G.I.R.A.G.A.K.C.M.N.G.K.C.K.C.Y.P.H}$PEPTIDE1,PEPTIDE1,7:R3-29:R3|PEPTIDE1,PEPTIDE1,13:R3-34:R3|PEPTIDE1,PEPTIDE1,17:R3-36:R3$$$V2.0; N-terminus and C-terminus assumed)	Vm24 > HgTX1 > KTX1	1/30	significant inhibition	86		equivalent high potency	equivalent high potency
CC[C@H](C)[C@H](NC(=O)[C@H](CCC(=O)O)NC(=O)[C@@H](NC(=O)CN)C(C)C)C(=O)N[C@@H](CC(N)=O)C(=O)N[C@H](C(=O)N[C@@H](CCCCN)C(=O)N[C@H]1CSSC[C@@H]2NC(=O)[C@H](CCCCN)NC(=O)CNC(=O)[C@H](Cc3ccccc3)NC(=O)[C@H](CCCNC(=N)N)NC(=O)[C@H](CCSC)NC(=O)CNC(=O)[C@H](C)NC(=O)[C@H](CC(=O)O)NC(=O)[C@H](CCCCN)NC(=O)[C@@H]3CSSC[C@@H](C(=O)N[C@H](C(=O)N4CCC[C@H]4C(=O)N[C@@H](CCCCN)C(=O)O)[C@@H](C)O)NC(=O)[C@H](Cc4c[nH]cn4)NC(=O)[C@H](CSSC[C@H](NC(=O)[C@H](CCC(N)=O)NC(=O)[C@@H]4CCCN4C(=O)[C@H](CO)NC(=O)CNC(=O)[C@H](CO)NC1=O)C(=O)N[C@@H](CC(C)C)C(=O)N[C@@H](CCCCN)C(=O)N1CCC[C@H]1C(=O)N3)NC(=O)[C@H](CCCCN)NC(=O)[C@H](CCCNC(=N)N)NC(=O)[C@H](CC(N)=O)NC(=O)[C@H](CCSC)NC2=O)C(C)C [KTX1, Kaliotoxin-1]	Vm24 > HgTX1 > KTX1	< 1/600	significant inhibition	650	1100 to 41000		

Source: paper PMC11002876, “KcsA-Kv1.x chimeras with complete ligand-binding sites provide improved predictivity for screening selective Kv1.x blockers” (The Journal of Biological Chemistry, 2024)
